Each structure is given as a SMILES string. pEC50, pIC50: −log10 of the molar value.

Chain of cytoplasmic kinase domain of human IGF-1R (IGF-1R-GST) (P08069 964-1367 limits assumed): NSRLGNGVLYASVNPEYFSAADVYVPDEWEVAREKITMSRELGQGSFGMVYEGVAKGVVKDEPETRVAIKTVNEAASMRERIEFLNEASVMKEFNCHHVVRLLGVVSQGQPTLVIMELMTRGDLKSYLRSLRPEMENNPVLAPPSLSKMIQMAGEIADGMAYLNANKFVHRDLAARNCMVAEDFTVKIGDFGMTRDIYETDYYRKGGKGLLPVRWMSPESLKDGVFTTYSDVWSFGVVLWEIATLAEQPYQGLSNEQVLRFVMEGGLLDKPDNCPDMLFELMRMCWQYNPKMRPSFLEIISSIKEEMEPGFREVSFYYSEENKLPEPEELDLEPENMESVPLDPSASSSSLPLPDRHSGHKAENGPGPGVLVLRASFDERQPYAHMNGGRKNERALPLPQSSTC

The first assay addresses cytoplasmic kinase domain of human IGF-1R (IGF-1R-GST) (Homo sapiens (Human), UniProt P08069). As to the kind of experiment: Insulin-like growth factor-1 receptor (IGF-1R)-kinase assay (DELFIA). The following applies: inhibition of IGF-1R-kinase activity, read-out: IGF1R IC50. The format is biochemical. The protocol: Insulin-Like Growth Factor-1 Receptor (IGF-1R)-Kinase Assay
The kinase activity is measured by DELFIA® assay (dissociation-enhanced lanthanide fluorescence immunoassay, Perkin Elmer). […] Enzyme activity is measured in the presence of substances and a control substance. Poly-glutamate-tyrosine peptide (pEY, Sigma Aldrich) and biotinylated pEY (bio-pEY) are used as reaction substrates.
After 40 min at RT the reactions are stopped with 50 μL of stop solution (250 mM EDTA, 20 mM HEPES pH 7.4). 90 μL from each reaction are transferred onto streptavidin-coated 96-well plates. After 120 min incubation at RT the plates are washed three times with 200 μL phosphate-buffered saline (PBS) per well. The plates are incubated for 60 min with 100 μL of europium-coupled antibody against phospho-tyrosine (diluted 1/2000 in Perkin Elmer DELFIA assay buffer) per well. The plates are washed three times with 200 μL per well of DELFIA washing buffer. 100 μL DELFIA Enhancement Solution (Perkin Elmer) is added to each well, and the plates are incubated for 10 min. The fluorescence signal is measured with a Wallac Victor TRF Reader. IC50 values for the inhibition of the IGF-1R-kinase activity are calculated using the programmes Fifty (Version 2) and GraphPad (Version 3.0).
A word on the pIC50: it is the negative decadic logarithm of the IC50, by convention in mol/L. On to `CCOc1cc(C(=O)NC)ccc1Nc1ncc2c(n1)-c1c(nn(C)c1-c1ccccc1)CC2` [III-3], for which the pIC50 is 7.04.

In a further assay the test system is TC-71 (Ewing's sarcoma) cells. Put plainly: cells. The following applies: Homo sapiens, TC-71, 72 h, read-out: EC50 on TC-71 cells. The protocol:
Cell Proliferation Assays
Published scientific data has described that interference with the Insulin-like Growth Factor-1 Receptor (IGF-1R) signaling pathway reduces the proliferation of TC-71 cells. Therefore TC-71 cells served as a positive control cell line for monitoring the activity of compounds against IGF-1R-mediated cell proliferation.
2000 TC-71 cells or 1000 HCT 116 cells were seeded per well in 180 μL IMDM+10% foetal calf serum (FCS)+penicillin/streptomycin into 96-well microtitre plates. The plates were placed in a cell culture incubator (37° C. in a humidified atmosphere of 95% […]/5 CO2) overnight. The following day, serial dilutions of compounds, prepared in duplicates, were transferred onto the cell layers (controls without compound). The cells were cultivated for a further 72 h in the cell culture incubator. 20 μL of Alamar Bluet™ (Serotec Ltd, Düsseldorf, Germany) was added to each well and the plates incubated for 7 h in the cell culture incubator.
As usually defined, the pEC50 is the EC50 on a negative log10 scale, so that one unit is a factor of ten. Take `CC1Cc2nn(C)c(-c3ccccc3Cl)c2-c2nc(Nc3ccn(C(C)C)n3)ncc21` (racemic) [Compound I-40, 9-(2-chlorophenyl)-5,8-dimethyl-N-(1-propane-2-ylpyrazol-3-yl)-5,6-dihydropyrazolo[3,4-h]quinazolin-2-amine]: the pEC50 is > 5.52.
For `CC1Cc2nn(C)c(-c3ccccc3Cl)c2-c2nc(Nc3ccn(C)n3)ncc21` (racemic) [Compound I-42, 9-(2-chlorophenyl)-5,8-dimethyl-N-(1-methylpyrazol-3-yl)-5,6-dihydropyrazolo[3,4-h]quinazolin-2-amine], the pEC50 was > 5.52.
Still for that read-out and setting: then `COc1cc(N2CCN(C)CC2)ccc1Nc1ncc2c(n1)-c1c(nn(C)c1-c1ccccc1Cl)CC2C` (racemic) [Compound I-97, 9-(2-chlorophenyl)-N-[2-methoxy-4-(4-methylpiperazin-1-yl)phenyl]-5,8-dimethyl-5,6-dihydropyrazolo[3,4-h]quinazolin-2-amine], with > 5.52.
For `COc1cc(C(=O)NC2CCN(C)CC2)ccc1Nc1ncc2c(n1)-c1c(nn(C)c1-c1ccccc1Cl)CC2C` (racemic) [Compound I-157, 4-[[9-(2-chlorophenyl)-5,8-dimethyl-5,6-dihydropyrazolo[3,4-h]quinazolin-2-yl]amino]-3-methoxy-N-(1-methylpiperidin-4-yl)benzamide], the pEC50 is > 5.52.
Consider `CC1Cc2nn(C)c(Cc3ccccc3Cl)c2-c2nc(Nc3cnn(C4CCNCC4)c3)ncc21` (racemic) [IV-2a], for which the pEC50 is > 5.52.
The same measure, in the same setting: as for `COC(=O)c1ccc(Nc2ncc3c(n2)-c2c(nn(C)c2-c2ccccc2Cl)CC3)c(OC)c1` [Compound I-3], the figure is > 5.52.
As for `Cn1nccc1Nc1ncc2c(n1)-c1c(nn(C)c1-c1ccccc1Cl)CC2` [Compound I-23], the pEC50 is > 5.52.
Still for that read-out and setting: as for `CCn1ccc(Nc2ncc3c(n2)-c2c(nn(C)c2-c2ccccc2Cl)CC3)n1` [Compound I-30, 9-(2-chlorophenyl)-N-(1-ethylpyrazol-3-yl)-8-methyl-5,6-dihydropyrazolo[3,4-h]quinazolin-2-amine], the figure is > 5.52; as for `Cc1cc(Nc2ncc3c(n2)-c2c(nn(C)c2-c2ccccc2Cl)CC3)nn1C` [Compound I-109], > 5.52; as for `COc1cc(C(=O)NC2CCN(C)CC2)ccc1Nc1ncc2c(n1)-c1c(nn(C)c1-c1ccccc1Cl)CC2` [Compound I-112, 4-[[9-(2-chlorophenyl)-8-methyl-5,6-dihydropyrazolo[3,4-h]quinazolin-2-yl]amino]-3-methoxy-N-(1-methylpiperidin-4-yl)benzamide], > 5.52.
As for `Cc1cccc(-c2c3c(nn2C)CCc2cnc(Nc4ccccc4)nc2-3)c1Cl` [Compound I-147], the pEC50 is > 5.52.
Same read-out and setting: as for `COCCn1ccc(Nc2ncc3c(n2)-c2c(nn(C)c2-c2ccc(Cl)cc2)CC3)n1` [Compound I-171, 9-(4-chlorophenyl)-N-[1-(2-methoxyethyl)pyrazol-3-yl]-8-methyl-5,6-dihydropyrazolo[3,4-h]quinazolin-2-amine], the figure is > 5.52; as for `CCn1ccc(Nc2ncc3c(n2)-c2c(nn(C)c2-c2sccc2C)CC3)n1` [Compound I-172], > 5.52; as for `Cc1ccsc1-c1c2c(nn1C)CCc1cnc(Nc3ccn(CCN(C)C)n3)nc1-2` [Compound I-189, N-[1-(2-dimethylaminoethyl)pyrazol-3-yl]-8-methyl-9-(3-methylthiophen-2-yl)-5,6-dihydropyrazolo[3,4-h]quinazolin-2-amine], > 5.52.
In the case of `CCn1ccc(Nc2ncc3c(n2)-c2c(nn(C)c2-c2cccc(OC)c2)CC3)n1` [Compound I-293], the pEC50 is > 5.52.
On the same count and under the same terms, as for `Cc1cc(Nc2ncc3c(n2)-c2c(nn(C)c2-c2ccc(OC(F)F)cc2)CC3)nn1C` [Compound I-294], the figure is > 5.52.
Still for that read-out and setting: as for `COc1cc(C(=O)O)ccc1Nc1ncc2c(n1)-c1c(nn(C)c1-c1ccccc1Cl)CC2` [II-18], the figure is > 5.52; as for `COc1cc(C(=O)NC2CC(N3CCN(C)CC3)C2)ccc1Nc1ncc2c(n1)-c1c(nn(C)c1-c1ccccc1Cl)CC2` (stereo not drawn) [III-38], > 5.52; as for `COc1cc(C(=O)NC2CCN(C)CC2)ccc1Nc1ncc2c(n1)-c1c(nn(C)c1-c1sccc1C)CC2` [III-105], > 5.52.
The same measure, in the same setting: then `COc1cc(C(=O)NC2CCN(C)CC2)ccc1Nc1ncc2c(n1)-c1c(nn(C)c1Cc1c(Cl)cccc1Cl)CC2` [III-107], with > 5.52.
With `CC1Cc2nn(C)c(Cc3ccccc3Cl)c2-c2nc(Nc3cnn(C4CCN(C5CCOCC5)CC4)c3)ncc21` (stereo not drawn) [IV-9a], the pEC50 is > 5.52.
Take `CC(=O)N1CCC(N2CCC(n3cc(Nc4ncc5c(n4)-c4c(nn(C)c4Cc4ccccc4Cl)CC5C)cn3)CC2)CC1` (stereo not drawn) [IV-9b]: the pEC50 was > 5.52.
The same measure, in the same setting: as for `CC1Cc2nn(C)c(Cc3ccccc3Cl)c2-c2nc(Nc3cnn(C4CCN(CCO)CC4)c3)ncc21` (stereo not drawn) [IV-9c], the figure is > 5.52.

The record behind these values is patent US8735386B2, “Aminopyrazoloquinazolines” (Boehringer Ingelheim International GmbH, priority 2010, dated 2014).
